{"source": "patent US20050101565A1", "about": "“Pharmaceutical compositions and methods for treating, preventing, and managing cholesterol, dyslipidemia, and related disorders” (Esperion Therapeutics, Inc., priority 2002, published 2005)", "origin": "cited, not measured here", "key": {"[1]": {"details": "many patients, metformin therapy"}, "[2]": {"details": "patients on metformin therapy"}}}
{"smiles": "CN(C)C(=N)N=C(N)N", "note": "[metformin]", "values": [{"measurement": "weight reduction", "setting": "[1]", "value": "5-10%"}, {"measurement": "incidence of lactic acidosis", "setting": "[2]", "value": "3 cases per 100,000 patient/year of therapy"}]}
